Paper PMC11909975, “Spectroscopic, docking, antiproliferative, and anticancer activity of novel metal derivatives of phenylacetohydrazide Schiff base on different human cancer cell lines” (BMC Chemistry, 2025)
≈ marks a conversion by molar mass, not a printed value.

Tests used:
Type in all cases: cell-based
[1] = tested on: HepG2 (Human Liver cancer cell line); assay: MTT cytotoxicity assay on liver cancer cells; conditions: for SI (selectivity index), HEPG2: IC50 normal cells (HSF) / IC50 HEPG2
Method: (§1) Cells (HeLa, cervical cancer cells; MDA-MB-231, breast cancer cells; A375, skin cancer cells; A549, lung cancer cells; and HSF, normal skin fibroblasts cells) were supplied from Nawah Scientific (Cairo, Egypt). The cells were grown in DMEM medium supplemented with 10% fetal bovine serum (Gibco, Life Technologies Inc., UK) with 1% penicillin/streptomycin solution (Gibco). Cells were maintained at 37°C with 5% CO2.
(§2) MTT in vitro cytotoxic assay assesses the metabolic activity of viable cells through the reduction of the water-soluble yellow dye by mitochondrial succinate dehydrogenase into the insoluble purple formazan. In brief, cyanochalcone derivatives were dissolved in 100% dimethyl sulphoxide (DMSO, Serva, Heidelberg, Germany) and incubated with cells at the desired concentrations (0, 6.25, 12.5, 25, 50, 100, and 200 μM) for 48 h with the corresponding vehicle as control. 5-Florouracil (5FU) was used as a positive control. Following incubation, old media were discarded and MTT solution (50 μl, 0.5 mg/ml) was added. After 4 h of incubation, the insoluble formed formazan was dissolved in DMSO (100 μl) with a shaking plate for 15 min in a dark place. The absorbance readings were taken at 570 nm by an ELISA reader. Relative cell viability was calculated as a percentage of control untreated cells. The assay was done in four replicates. The dose–response curve was plotted using GraphPad Prism 8, and the values of IC50 (half-maximal inhibitory concentration) were determined using non-linear regression analysis. Finally, the selectivity index was calculated by dividing the IC50 for normal cells by the IC50 of cancer cells.
(§3) To evaluate the potential usefulness of the Schiff base ligand (H2L) and the reported complexes (Fe, Zn, Cd, Pt) as antitumor agents, five human cell lines (normal Cells; HSF, human colorectal cancer cell line; HCT119, liver carcinoma cell line; HEPG2, human triple-negative breast cancer; MDA, human lung cancer cell line; A549) were treated by the compounds and compared with cis-platin activity as a standard. The IC50 values (concentration that produces 50% inhibition of cell growth) and selectivity index of the H2L ligand, the metal complexes, and cis-platin were tabulated in Table 4.

[2] = tested on: HCT119 (Human Colorectal cancer cell line); assay: MTT cytotoxicity assay on colorectal cancer cells; conditions: for SI (selectivity index), HCT119: IC50 normal cells (HSF) / IC50 HCT119
Method: as §1, §2, §3

[3] = tested on: MDA (Human Breast cancer cell line); assay: MTT cytotoxicity assay on triple-negative breast cancer cells; conditions: for SI (selectivity index), MDA: IC50 normal cells (HSF) / IC50 MDA
Method: as §1, §2, §3

[4] = tested on: HSF normal human skin fibroblast; assay: MTT cytotoxicity assay on normal skin fibroblasts; conditions: for SI (selectivity index), HSF: IC50 normal cells (HSF) / IC50 HSF
Method: as §1, §2, §3

[5] = tested on: A549 (Human Lung cancer cell line); assay: MTT cytotoxicity assay on lung cancer cells; conditions: for SI (selectivity index), A549: IC50 normal cells (HSF) / IC50 A549
Method: as §1, §2, §3

[6] = HEPG2 liver carcinoma cells, MTT, 48 h
[7] = HCT119 colorectal cancer cells (HCT116 in abstract), MTT, 48 h
[8] = MDA triple-negative breast cancer cells, MTT, 48 h
[9] = HSF normal skin fibroblasts, MTT, 48 h
[10] = A549 lung cancer cells, MTT, 48 h

Structure (SMILES)	IC50 (HEPG2) [1, 6] [µg/mL]	SI (selectivity index), HEPG2 [1]	IC50 (HCT119) [2, 7] [µg/mL]	SI (selectivity index), HCT119 [2]	SI (selectivity index), MDA [3]	IC50 (MDA) [3, 8] [µg/mL]	IC50 (HSF) [4, 9] [µg/mL]	SI (selectivity index), HSF [4]	IC50 (A549) [5, 10] [µg/mL]	SI (selectivity index), A549 [5]	IC50 ([1]; Homo sapiens, HEPG2 liver carcinoma cells, MTT, 48 h) [µg/mL]	IC50 ([2]; Homo sapiens, HCT-116, HCT119 colorectal cancer cells (HCT116 in abstract), MTT, 48 h) [µg/mL]	IC50 ([3]; Homo sapiens, MDA triple-negative breast cancer cells, MTT, 48 h) [µg/mL]	IC50 ([4]; Homo sapiens, Skin fibroblast, HSF normal skin fibroblasts, MTT, 48 h) [µg/mL]	IC50 ([5]; Homo sapiens, A549 lung cancer cells, MTT, 48 h) [µg/mL]
O=C(Cc1ccccc1)NN=Cc1c([O-])ccc2ccccc12.O=C(Cc1ccccc1)NN=Cc1c([O-])ccc2ccccc12.[Fe+2] [Fe complex]	40.73	0.39	64.01	0.25	2.09	7.58	15.84	1.00	95.49	0.17					
CC(=O)[O-].CC(=O)[O-].[Cd+2].[Cd+2].[O-]c1ccc2ccccc2c1C=NN=C(O)Cc1ccccc1.[O-]c1ccc2ccccc2c1C=NN=C(O)Cc1ccccc1 [Cd complex]	4.16	1.26	0.329	15.93	0.20	25.7	5.24	1.00	56.23	0.09					
O=C(Cc1ccccc1)NN=Cc1c(O)ccc2ccccc12 [H2L, Nʹ-((2-hydroxynaphthalen-1-yl)methylene)-2-phenylacetohydrazide]		2.88		0.32	3.63			1.00		3.63	31.6 (≈ 104 µM)	285 (≈ 936 µM)	25.1 (≈ 82.5 µM)	91.2 (≈ 300 µM)	25.1 (≈ 82.5 µM)
C1=[N+]2N=C(Cc3ccccc3)[O][Zn-2]23[O+](c2ccc4ccccc4c21)[Zn-2]12[O]C(Cc4ccccc4)=N[N+]1=Cc1c(ccc4ccccc14)[O+]32.CC(=O)O.CC(=O)O (stereo not shown) [Zn complex]	32.35					89.12		1.00							
N.N.[Cl][Pt][Cl] [Cisplatin, reference compound]	3.42	3.24	2.25	4.92	3.45	3.21	11.07	1.00	2.73	4.05					
